Data published in patent US20220251163A1 (Sinopep-Allsino Biopharmaceutical Co., Ltd., priority 2019, published 2022).
Where a SMILES comes first, the peptide text is derived from it.

Key:
[1] = target: T1, mGLP-1R (Mus musculus, UniProt O35659); test: GLP-1R agonist activity, cAMP in transfected HEK293 cells; type: cell-based; details: HEK293 cells transfected with GLP-1R, cAMP, 20 min incubation; read-out: mGLP-1R EC50
T1 construct: expressed in transfected cells; host or cells: HEK293
T1 sequence (O35659 22-463): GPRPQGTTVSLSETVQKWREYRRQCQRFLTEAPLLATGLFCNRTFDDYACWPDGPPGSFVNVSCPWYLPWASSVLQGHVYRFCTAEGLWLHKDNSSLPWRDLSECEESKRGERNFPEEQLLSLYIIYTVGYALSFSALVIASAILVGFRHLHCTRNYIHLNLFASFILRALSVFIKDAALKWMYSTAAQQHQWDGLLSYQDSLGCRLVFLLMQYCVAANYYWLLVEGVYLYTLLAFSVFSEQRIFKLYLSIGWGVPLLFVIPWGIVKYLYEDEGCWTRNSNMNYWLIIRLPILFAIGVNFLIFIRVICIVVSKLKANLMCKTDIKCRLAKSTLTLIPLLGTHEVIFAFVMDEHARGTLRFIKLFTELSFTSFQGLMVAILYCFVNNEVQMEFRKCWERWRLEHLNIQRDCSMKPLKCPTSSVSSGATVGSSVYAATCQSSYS
Method: HEK293 cells were co-transfected with cDNA encoding GLP-1R or GIPR. In a test for determining the compound, the cells were inoculated in a 96-well plate 2 h in advance, the polypeptide compound was dissolved with DMSO, and diluted to different multiples with a culture medium containing 0.1% bovine serum albumin and added to the co-transfected cells. After the cells were incubated for 20 min, fluorescence values were determined through microplate reader of an ELISA kit of the Cisbo Company, a standard curve was established to convert the fluorescence values into corresponding cAMP values, and the EC50 value of the compound was calculated through nonlinear regression of Graphpad Prism 5.0 software.

[2] = target: T2, mGIPR (Mus musculus, UniProt Q0P543); test: GIPR agonist activity, cAMP in transfected HEK293 cells; type: cell-based; details: HEK293 cells transfected with GIPR, cAMP, 20 min incubation; read-out: mGIPR EC50
T2 construct: expressed in transfected cells; host or cells: HEK293
T2 sequence (Q0P543 19-460): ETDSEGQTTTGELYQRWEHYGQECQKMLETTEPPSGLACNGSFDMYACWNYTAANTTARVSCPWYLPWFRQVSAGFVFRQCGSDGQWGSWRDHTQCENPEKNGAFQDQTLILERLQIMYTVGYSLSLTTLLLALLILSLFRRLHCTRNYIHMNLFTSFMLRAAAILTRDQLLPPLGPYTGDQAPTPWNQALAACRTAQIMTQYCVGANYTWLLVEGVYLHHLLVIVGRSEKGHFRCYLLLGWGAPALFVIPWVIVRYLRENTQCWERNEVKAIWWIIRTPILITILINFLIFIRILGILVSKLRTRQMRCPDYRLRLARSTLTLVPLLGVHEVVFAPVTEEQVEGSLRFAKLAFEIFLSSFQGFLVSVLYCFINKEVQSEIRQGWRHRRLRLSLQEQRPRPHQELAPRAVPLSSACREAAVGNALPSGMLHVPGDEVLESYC
Method: HEK293 cells were co-transfected with cDNA encoding GLP-1R or GIPR. In a test for determining the compound, the cells were inoculated in a 96-well plate 2 h in advance, the polypeptide compound was dissolved with DMSO, and diluted to different multiples with a culture medium containing 0.1% bovine serum albumin and added to the co-transfected cells.

`CCCCCCCCCCCCCCCC(=O)N[C@@H](CCC(=O)NCCCC[C@H](NC(=O)[C@H](CCC(N)=O)NC(=O)[C@H](C)NC(=O)[C@@H](NC(=O)[C@H](CCCCN)NC(=O)[C@H](CC(=O)O)NC(=O)[C@H](CC(C)C)NC(=O)[C@H](C)NC(=O)[C@@H](NC(=O)[C@H](CO)NC(=O)[C@H](Cc1ccc(O)cc1)NC(=O)[C@H](CC(=O)O)NC(=O)[C@H](CO)NC(=O)[C@@H](NC(=O)[C@H](Cc1ccccc1)NC(=O)[C@@H](NC(=O)CNC(=O)[C@H](CCC(=O)O)NC(=O)C(C)(C)NC(=O)[C@@H](N)Cc1ccc(O)cc1)[C@@H](C)O)[C@@H](C)O)[C@@H](C)CC)[C@@H](C)CC)C(=O)N[C@@H](C)C(=O)N[C@@H](Cc1ccccc1)C(=O)N[C@H](C(=O)N[C@@H](CCC(N)=O)C(=O)N[C@@H](Cc1c[nH]c2ccccc12)C(=O)N[C@@H](CC(C)C)C(=O)N[C@H](C(=O)N[C@@H](C)C(=O)NCC(=O)NCC(=O)N1CCC[C@H]1C(=O)N[C@@H](CO)C(=O)N[C@@H](CO)C(=O)NCC(=O)N[C@@H](C)C(=O)N1CCC[C@H]1C(=O)N1CCC[C@H]1C(=O)N1CCC[C@H]1C(=O)N[C@@H](CO)C(N)=O)[C@@H](C)CC)C(C)C)C(=O)O` [ID NO: 17] (HELM PEPTIDE1{Y.[Aib].E.G.T.F.T.S.D.Y.S.I.A.L.D.K.I.A.Q.K.A.F.V.Q.W.L.I.A.G.G.P.S.S.G.A.P.P.P.S.[am]}|PEPTIDE2{[CCCCCCCCCCCCCCCC(=O)[*:2]].[gGlu]}$PEPTIDE1,PEPTIDE2,20:R3-2:R2$$$V2.0) showed an EC50 [1] of 45.4 pM and an EC50 [2] of 9.72 pM.

`CCCCCCCCCCCCCCCC(=O)N[C@@H](CCC(=O)NCCCC[C@H](NC(=O)[C@H](CCC(N)=O)NC(=O)[C@H](C)NC(=O)[C@@H](NC(=O)[C@H](CCCCN)NC(=O)[C@H](CC(=O)O)NC(=O)[C@H](CC(C)C)NC(=O)C(C)(C)NC(=O)[C@@H](NC(=O)[C@H](CO)NC(=O)[C@H](Cc1ccc(O)cc1)NC(=O)[C@H](CC(=O)O)NC(=O)[C@H](CO)NC(=O)[C@@H](NC(=O)[C@H](Cc1ccccc1)NC(=O)[C@@H](NC(=O)CNC(=O)[C@H](CCC(=O)O)NC(=O)C1(NC(=O)[C@@H](N)Cc2ccc(O)cc2)CCC1)[C@@H](C)O)[C@@H](C)O)[C@@H](C)CC)[C@@H](C)CC)C(=O)N[C@@H](C)C(=O)N[C@@H](Cc1ccccc1)C(=O)N[C@H](C(=O)N[C@@H](CCC(N)=O)C(=O)N[C@@H](Cc1c[nH]c2ccccc12)C(=O)N[C@@H](CC(C)C)C(=O)N[C@H](C(=O)N[C@@H](C)C(=O)NCC(=O)NCC(=O)N1CCC[C@H]1C(=O)N[C@@H](CO)C(=O)N[C@@H](CO)C(=O)NCC(=O)N[C@@H](C)C(=O)N1CCC[C@H]1C(=O)N1CCC[C@H]1C(=O)N1CCC[C@H]1C(=O)N[C@@H](CO)C(N)=O)[C@@H](C)CC)C(C)C)C(=O)O` [ID NO: 18] was tested, and the EC50 [1] was 9.02 pM and the EC50 [2] was 8.33 pM.

Compound `CCCCCCCCCCCCCCCC(=O)N[C@@H](CCC(=O)NCCCC[C@H](NC(=O)[C@H](CCC(N)=O)NC(=O)[C@H](C)NC(=O)[C@@H](NC(=O)[C@H](CCCCN)NC(=O)[C@H](CC(=O)O)NC(=O)[C@H](CC(C)C)NC(=O)C1(NC(=O)[C@@H](NC(=O)[C@H](CO)NC(=O)[C@H](Cc2ccc(O)cc2)NC(=O)[C@H](CC(=O)O)NC(=O)[C@H](CO)NC(=O)[C@@H](NC(=O)[C@H](Cc2ccccc2)NC(=O)[C@@H](NC(=O)CNC(=O)[C@H](CCC(=O)O)NC(=O)C(C)(C)NC(=O)[C@@H](N)Cc2ccc(O)cc2)[C@@H](C)O)[C@@H](C)O)[C@@H](C)CC)CCC1)[C@@H](C)CC)C(=O)N[C@@H](C)C(=O)N[C@@H](Cc1ccccc1)C(=O)N[C@H](C(=O)N[C@@H](CCC(N)=O)C(=O)N[C@@H](Cc1c[nH]c2ccccc12)C(=O)N[C@@H](CC(C)C)C(=O)N[C@H](C(=O)N[C@@H](C)C(=O)NCC(=O)NCC(=O)N1CCC[C@H]1C(=O)N[C@@H](CO)C(=O)N[C@@H](CO)C(=O)NCC(=O)N[C@@H](C)C(=O)N1CCC[C@H]1C(=O)N1CCC[C@H]1C(=O)N1CCC[C@H]1C(=O)N[C@@H](CO)C(N)=O)[C@@H](C)CC)C(C)C)C(=O)O` [ID NO: 19] has an EC50 [1] of 11.9 pM and an EC50 [2] of 7.91 pM.

For `CCCCCCCCCCCCCCCC(=O)N[C@@H](CCC(=O)NCCCC[C@H](NC(=O)[C@H](CCC(N)=O)NC(=O)[C@H](C)NC(=O)[C@@H](NC(=O)[C@H](CCCCN)NC(=O)[C@H](CC(=O)O)NC(=O)[C@H](CC(C)C)NC(=O)C(C)(C)NC(=O)[C@@H](NC(=O)[C@H](CO)NC(=O)[C@H](Cc1ccc(O)cc1)NC(=O)[C@H](CC(=O)O)NC(=O)[C@H](CO)NC(=O)[C@@H](NC(=O)[C@H](Cc1ccccc1)NC(=O)[C@@H](NC(=O)CNC(=O)[C@H](CCC(=O)O)NC(=O)C1(NC(=O)[C@@H](N)Cc2ccc(O)cc2)CCCC1)[C@@H](C)O)[C@@H](C)O)[C@@H](C)CC)[C@@H](C)CC)C(=O)N[C@@H](C)C(=O)N[C@@H](Cc1ccccc1)C(=O)N[C@H](C(=O)N[C@@H](CCC(N)=O)C(=O)N[C@@H](Cc1c[nH]c2ccccc12)C(=O)N[C@@H](CC(C)C)C(=O)N[C@H](C(=O)N[C@@H](C)C(=O)NCC(=O)NCC(=O)N1CCC[C@H]1C(=O)N[C@@H](CO)C(=O)N[C@@H](CO)C(=O)NCC(=O)N[C@@H](C)C(=O)N1CCC[C@H]1C(=O)N1CCC[C@H]1C(=O)N1CCC[C@H]1C(=O)N[C@@H](CO)C(N)=O)[C@@H](C)CC)C(C)C)C(=O)O` [ID NO: 20], the EC50 [1] was 15.9 pM and the EC50 [2] was 5.91 pM.

`CCCCCCCCCCCCCCCC(=O)N[C@@H](CCC(=O)NCCCC[C@H](NC(=O)[C@H](CCC(N)=O)NC(=O)[C@H](C)NC(=O)[C@@H](NC(=O)[C@H](CCCCN)NC(=O)[C@H](CC(=O)O)NC(=O)[C@H](CC(C)C)NC(=O)C1(NC(=O)[C@@H](NC(=O)[C@H](CO)NC(=O)[C@H](Cc2ccc(O)cc2)NC(=O)[C@H](CC(=O)O)NC(=O)[C@H](CO)NC(=O)[C@@H](NC(=O)[C@H](Cc2ccccc2)NC(=O)[C@@H](NC(=O)CNC(=O)[C@H](CCC(=O)O)NC(=O)C(C)(C)NC(=O)[C@@H](N)Cc2ccc(O)cc2)[C@@H](C)O)[C@@H](C)O)[C@@H](C)CC)CCCC1)[C@@H](C)CC)C(=O)N[C@@H](C)C(=O)N[C@@H](Cc1ccccc1)C(=O)N[C@H](C(=O)N[C@@H](CCC(N)=O)C(=O)N[C@@H](Cc1c[nH]c2ccccc12)C(=O)N[C@@H](CC(C)C)C(=O)N[C@H](C(=O)N[C@@H](C)C(=O)NCC(=O)NCC(=O)N1CCC[C@H]1C(=O)N[C@@H](CO)C(=O)N[C@@H](CO)C(=O)NCC(=O)N[C@@H](C)C(=O)N1CCC[C@H]1C(=O)N1CCC[C@H]1C(=O)N1CCC[C@H]1C(=O)N[C@@H](CO)C(N)=O)[C@@H](C)CC)C(C)C)C(=O)O` [ID NO: 21] showed an EC50 [1] of 17.8 pM and an EC50 [2] of 8.07 pM.
